# Measured values from ChEMBL document CHEMBL5226335, “Efforts towards the inhibitor design for New Delhi metallo-beta-lactamase (NDM-1)” (Eur J Med Chem, 2021).
# System: not listed separately
# Assay: Inhibition of NDM-1 (unknown origin)
# Parameters: species or system Bacteria
# Conditions: not given
SMILES,IC50 [µM],pIC50
CC(=O)C1CSC(C(=O)O)N1 (stereo not drawn),3.45,–
CCCCC(=O)NC(Cc1c[nH]c2ccccc12)C(=O)SCC(=O)O (stereo not drawn),54.9,–
CCC/C(=N\Nc1cccc2cccnc12)C(=O)O,68.2,–
O=C(O)[C@H]1CS[C@@H]2CS[C@@H](CS)N12,109,–
CC1=C(c2ccc(Cl)cc2)N(/C(C)=N/c2ccc(Br)cc2)C(c2ccc(Cl)cc2)N1c1ccc(Br)cc1 (stereo not drawn),600,–
NCc1ccc(Cn2ccnc2C(=O)O)cc1,165,–
Cc1cccc(-c2cc[nH]c2C(=O)O)c1,–,4.2
CN(C)c1ccc(-c2cc(C(=O)O)nc(C(=O)O)c2)cc1,0.19,–
CCCCC(=O)NC(Cc1ccccc1)C(=O)SCC(=O)O (stereo not drawn),28.6,–
CCCC/C(=N\Nc1cccc2cccnc12)C(=O)O,82.3,–
O=C(O)c1cccc(C(=O)O)n1 [DIPICOLINIC ACID],1.13,–
CC(C)c1cc2c(c(O)c1O)[C@@]1(C(=O)O)CCCC(C)(C)[C@@H]1CC2 [CARNOSIC ACID],27.1,–
O=C(O)C(=O)CBr [BROMOPYRUVATE],2.57,–
CCN(CC)C(=S)SSC(=S)N(CC)CC [DISULFIRAM],0.13,–
O=C(O)c1ccc(O)c(CP(=O)(O)O)n1,0.322,–
C[C@H](CS)C(=O)N[C@@H](C(=O)O)c1ccc2cc[nH]c2c1,24.8,–
O=C(O)c1nccn1Cc1ccc(O)cc1,118,–
CC(=O)NC1=C(S)/C(=C\S)NC1=O,0.11,–
CC1=C(c2ccccc2)N(/C(C)=N/c2ccc(Cl)cc2)C(c2ccccc2)N1c1ccc(Cl)cc1 (stereo not drawn),900,–
CC1(C)S[C@@H]2CS[C@@H](CS)N2[C@H]1C(=O)O,180,–
CC1=C(c2ccc(Cl)cc2)N(/C(C)=N/c2ccc(Cl)cc2)C(c2ccc(Cl)cc2)N1c1ccc(Br)cc1 (stereo not drawn),400,–
O=C(O)[C@@H]1CS[C@H]2CS[C@H](CS)N21,23,–
Oc1c(C(Nc2ccc(F)cc2)c2cncs2)ccc2cccnc12 (stereo not drawn),10.3,–
O=C(O)c1cccc(CP(=O)(O)O)n1,0.374,–
CC1(C)S[C@H]2CS[C@H](CS)N2[C@@H]1C(=O)O,200,–
CSCCC(NC(=O)Cc1ccccc1)C(=O)SCC(=O)O (stereo not drawn),19.7,–
Nc1cccc(-c2cc(C(=O)O)nc(C(=O)O)c2)c1,0.08,–
C[C@@H](CS)C(=O)N[C@@H](C(=O)O)c1ccc2cc[nH]c2c1,64.8,–
CCCCC(=O)NC(CCSC)C(=O)SCC(=O)O (stereo not drawn),37.7,–

# Further lines, results first:
IC50 [µM],pIC50,SMILES
16.6,–,O=C(O)CSC(=O)C(Cc1c[nH]c2ccccc12)NC(=O)Cc1ccc(-c2ccccc2)cc1 (stereo not drawn)
0.306,–,O=C(O)c1ccc(N(Cc2ccccc2)C(=O)c2cccs2)c(CP(=O)(O)O)n1
0.13,–,O=C(Nc1cccc(-c2cc(C(=O)O)nc(C(=O)O)c2)c1)c1ccccc1
0.463,–,Oc1c(C(Nc2ccccn2)c2cccs2)ccc2cccnc12 (stereo not drawn)
44,–,O=C(O)CSC(=O)C(Cc1ccccc1)NC(=O)Cc1ccc(-c2ccccc2)cc1 (stereo not drawn)
28.1,–,CCCC/C(=N\Nc1cccc2ccccc12)C(=O)O
27.9,–,O=C(O)CSC(=O)C(Cc1c[nH]c2ccccc12)NC(=O)Cc1ccccc1 (stereo not drawn)
2.93,–,O=C(Cc1ccccc1)N[C@@H]1C(=O)N2C(C(=O)O)=C(CSc3nnc(-c4ccc(-n5[se]c6ccccc6c5=O)cc4)[nH]3)CSC12 (stereo partly drawn)
0.13,–,O=C(O)c1cc(-c2ccccc2O)cc(C(=O)O)n1
0.16,–,O=c1c2ccccc2sn1-c1ccccc1
63.4,–,O=C(O)c1nccn1Cc1ccccc1
–,4.5,Cc1cc(-c2ccccc2)c(C(=O)O)[nH]1
0.692,–,COc1cccc2sc(Nc3nnc(-c4cccs4)o3)nc12

# Molecular target: not listed separately
# Assay: Binding affinity to NDM-1 (unknown origin) assessed as inhibition constant
# Parameters: species or system Bacteria
# Conditions: not given
row,SMILES,Ki [µM]
1,O=C(O)c1ncsc1NS(=O)(=O)c1cccnc1,0.29
2,O=Cc1coc2ccccc2c1=O,0.58
3,O=c1c2ccccc2[se]n1-c1ccccc1 [EBSELEN],0.38
4,N[C@@H](C(=O)N[C@@H]1C(=O)N2C(C(=O)O)=C(Cl)CS[C@H]12)c1ccccc1 [CEFACLOR ANHYDROUS],2300

# The remaining lines, values ahead:
row,Ki [µM],SMILES
1,0.23,O=C(CSc1nnc(-c2ccncc2)o1)Nc1ccccc1
2,0.81,O=C(CSc1nnc(-c2ccccc2O)s1)Nc1nc2ccccc2s1
3,0.43,O=C(CSc1nnc(-c2ccccc2O)[nH]1)Nc1ccccc1
4,0.42,O=C(CSc1n[nH]c(-c2ccncc2)n1)Nc1ccccc1
5,0.64,O=C(CSc1nnc(-c2ccccc2O)s1)Nc1ccccc1
6,140,O=C(NOC(=O)Oc1ccccc1)OCc1ccccc1
7,0.6,O=C(CSc1nnc(-c2ccccc2O)o1)Nc1ccccc1
8,1.2,O=C(CSc1nnc(-c2ccncc2)s1)Nc1ccccc1
9,0.35,O=C(CSc1nnc(-c2ccccc2O)[nH]1)Nc1nc2ccccc2s1

# System: Klebsiella pneumoniae
# Assay: Antibacterial activity against Klebsiella pneumoniae N11-2218 expressing NDM-1infected in mouse assessed as survival rate at 10 mg/kg,sc measured after 5 days
# Format: functional
# Conditions: N11-2218, 120 h, time 5 day
row,SMILES,survival at 10 mg/kg [%]
1,COc1cc(/C=C/c2ccc(O)cc2)cc(OC)c1 [PTEROSTILBENE],52
2,N[C@H](CN[C@H](CN[C@@H](CC(=O)O)C(=O)O)C(=O)O)C(=O)O,95

# System: Escherichia coli
# Assay: Antibacterial activity against Escherichia coli expressing NDM-1
# Format: functional
# Conditions: not given
row,SMILES,MIC [µg/mL]
1,CCN(CC)C(=S)SSC(=S)N(CC)CC [DISULFIRAM],16
